This passage reports IC50 results from patent US20260365653A1, “IRREVERSIBLE MUTEGFR INHIBITORS” (Bayer Aktiengesellschaft, priority 2022, published 2026).

The target in test [1] is T1, mutEGFR (D770_N771insSVD) (Homo sapiens, UniProt P00533, DUP768-770).
T1 construct: GST-EGFR #3 (SVD between D770 and N771); made in house; host or cells: Sf9 insect cells (baculovirus)
Briefly: Exon20-Mutant-EGFR (D770_N771insSVD) kinase assay (TR-FRET). Type of test: biochemical. On the technique in general: Time-resolved FRET reads energy transfer from a long-lived donor to a nearby acceptor.

Test [2] addresses T2, mutEGFR (D770_N771insNPG, T790) (Homo sapiens, UniProt P00533, INS770NPG/T790M).
T2 construct: exact insNPG construct not described; in-house EGFR proteins were N-terminal GST fusions from baculovirus/insect cells (borders R669-A1210 given only for WT, insSVD, insASV)
The experiment in a line: mutEGFR (D770_N771insNPG, T790) kinase assay. It counts as biochemical. The text has this:
The different EGFR proteins used in the biochemical kinase activity inhibition assays were generated inhouse by expression in insect cells using Baculo Virus system and subsequent purification as described in the following paragraphs.
The cDNAs encoding the various protein sequences from human EGFR human (P00533) were optimized for expression in eukaryotic cells and synthesized by the GeneArt Technology at Life Technologies.

For the next test, the system named is BA/F3 (insSVD) cells. Briefly: Ba/F3-EGFR-insSVD cell survival assay (Cell Titer-Glo). It counts as cell-based. The essentials: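 Ba/F3 cells stably expressing retroviral EGFR-insSVD or insSVD T790M, grown without IL-3 on 10 ng/ml EGF, 4000 cells/well. Compound pinned in, 48 h at 37° C. Viability by CellTiter-Glo luminescence.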
Where [3] appears, read: mutEGFR (D770_N771insSVD) kinase assay IC50, Table 2a, D770_N771insSVD, 2 mM ATP.
Setting [4] is: Mus musculus, BaF3, 48 h, Table 3a, cell survival, Cell Titer-Glo, with 10 ng/ml EGF, without IL-3.

Where “and” joins values, the source holds several entries; their conditions need not be identical. Identical values can stand only once.

T2 sequence (P00533 with tags, fused parts or gaps INS770NPG/T790M limits assumed): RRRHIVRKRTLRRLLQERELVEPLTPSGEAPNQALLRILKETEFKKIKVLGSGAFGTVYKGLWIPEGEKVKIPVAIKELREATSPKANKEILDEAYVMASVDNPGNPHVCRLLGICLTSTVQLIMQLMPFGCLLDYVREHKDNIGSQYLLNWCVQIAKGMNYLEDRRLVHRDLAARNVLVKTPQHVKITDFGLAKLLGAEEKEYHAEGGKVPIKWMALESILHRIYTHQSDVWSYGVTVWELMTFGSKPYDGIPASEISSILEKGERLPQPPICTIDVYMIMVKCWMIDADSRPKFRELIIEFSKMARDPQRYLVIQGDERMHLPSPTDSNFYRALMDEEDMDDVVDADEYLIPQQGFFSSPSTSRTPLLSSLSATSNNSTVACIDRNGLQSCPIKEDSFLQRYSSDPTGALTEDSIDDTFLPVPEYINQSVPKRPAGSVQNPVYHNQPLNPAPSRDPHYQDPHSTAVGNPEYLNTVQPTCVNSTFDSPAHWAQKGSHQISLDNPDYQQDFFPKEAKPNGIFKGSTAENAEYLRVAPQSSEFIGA
T1 sequence (P00533 with tags, fused parts or gaps DUP768-770): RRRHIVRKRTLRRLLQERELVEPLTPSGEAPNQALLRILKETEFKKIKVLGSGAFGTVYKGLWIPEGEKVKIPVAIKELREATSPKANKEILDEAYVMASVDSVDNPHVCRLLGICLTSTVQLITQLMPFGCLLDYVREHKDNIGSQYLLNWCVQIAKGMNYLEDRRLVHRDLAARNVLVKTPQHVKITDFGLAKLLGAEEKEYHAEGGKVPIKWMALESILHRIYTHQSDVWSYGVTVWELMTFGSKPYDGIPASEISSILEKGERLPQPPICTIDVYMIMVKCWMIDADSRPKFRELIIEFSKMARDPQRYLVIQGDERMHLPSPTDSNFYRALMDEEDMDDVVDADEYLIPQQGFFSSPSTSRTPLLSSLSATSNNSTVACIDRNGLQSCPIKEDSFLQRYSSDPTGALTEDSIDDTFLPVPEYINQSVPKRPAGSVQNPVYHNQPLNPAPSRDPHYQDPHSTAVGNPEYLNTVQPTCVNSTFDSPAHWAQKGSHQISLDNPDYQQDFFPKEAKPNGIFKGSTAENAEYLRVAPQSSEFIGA

`O=C(/C=C/CF)N1CCn2nc(-c3ccc(F)cc3)c(-c3ccncc3)c2C1` [Example 78, (2E)-4-fluoro-1-[2-(4-fluorophenyl)-3-(pyridin-4-yl)-6,7-dihydropyrazolo[1,5-a]pyrazin-5(4H)-yl]but-2-en-1-one]: the half-maximal inhibitory concentration (IC50) (in general, the concentration that gives 50% inhibition) in test [1] (setting [3]) was determined as 3.86 nM; in test [2] (Table 2a, D770_N771insNPG) it was 15.4 nM; in the test with BA/F3 (insSVD) cells (setting [4]), 115 nM.
Consider `C=CC(=O)N1CCn2nc(-c3ccc(F)c4ccccc34)c(-c3ccncc3)c2C1` [Example 106, 1-[2-(4-fluoronaphthalen-1-yl)-3-(pyridin-4-yl)-6,7-dihydropyrazolo[1,5-a]pyrazin-5(4H)-yl]prop-2-en-1-one], for which the IC50 was found to be 0.528 nM in test [1] (setting [3]); 0.546 nM in test [2] (Table 2a, D770_N771insNPG); 214 nM in the test with BA/F3 (insSVD) cells (setting [4]).
For `CN(C)CC#CC(=O)N1CCn2nc(-c3ccc(Cl)cc3F)c(-c3ccncc3)c2C1` [Example 72, 1-[2-(4-chloro-2-fluorophenyl)-3-(pyridin-4-yl)-6,7-dihydropyrazolo[1,5-a]pyrazin-5(4H)-yl]-4-(dimethylamino)but-2-yn-1-one], the IC50 in test [1] (setting [3]) was found to be 0.211 nM; in test [2] (Table 2a, D770_N771insNPG) it was 0.3 nM; with BA/F3 (insSVD) cells (setting [4]), 17.9 nM.
As to `C=CC(=O)N1CCn2nc(-c3ccc(Cl)cc3C)c(-c3ccncc3)c2C1` [Example 117, 1-[2-(4-chloro-2-methylphenyl)-3-(pyridin-4-yl)-6,7-dihydropyrazolo[1,5-a]pyrazin-5(4H)-yl]prop-2-en-1-one], the IC50 in test [1] (setting [3]) amounted to 0.384 nM; in test [2] (Table 2a, D770_N771insNPG), 1.86 nM; in the test with BA/F3 (insSVD) cells (setting [4]) it was 54.5 nM.
Turning to `C=CC(=O)N1Cc2c(-c3ccncc3)c(-c3ccc4sccc4c3)nn2C[C@H]1C` [Example 277, 1-[(6R)-2-(1-benzothiophen-5-yl)-6-methyl-3-(pyridin-4-yl)-6,7-dihydropyrazolo[1,5-a]pyrazin-5(4H)-yl]prop-2-en-1-one], the IC50 was < 0.0725 nM and 0.0955 nM and 0.111 nM in test [1] (setting [3]); 0.153 nM in test [2] (Table 2a, D770_N771insNPG); 2.77 nM in the test with BA/F3 (insSVD) cells (setting [4]).
With `C=CC(=O)N1CCn2nc(-c3ccc(C(F)(F)F)cc3)c(-c3ccncc3)c2C1` [Example 44, 1-[3-(pyridin-4-yl)-2-[4-(trifluoromethyl)phenyl]-6,7-dihydropyrazolo[1,5-a]pyrazin-5(4H)-yl]prop-2-en-1-one], the IC50 amounted to 0.989 nM in test [1] (setting [3]); 2.8 nM in test [2] (Table 2a, D770_N771insNPG); 39 nM in the test on BA/F3 (insSVD) cells (setting [4]).
As for `C=CC(=O)N1CCn2nc(-c3ccccc3Cl)c(-c3ccncc3)c2C1` [Example 137, 1-[2-(2-chlorophenyl)-3-(pyridin-4-yl)-6,7-dihydropyrazolo[1,5-a]pyrazin-5(4H)-yl]prop-2-en-1-one], the IC50 in test [1] (setting [3]) was found to be 1.6 nM; in test [2] (Table 2a, D770_N771insNPG), 10.8 nM; in the test with BA/F3 (insSVD) cells (setting [4]) it was 144 nM.
For `C=CC(=O)N1Cc2c(-c3ccnc4[nH]cc(C)c34)c(-c3ccc(F)cc3)nn2C[C@H]1C` [Example 263, 1-[(6R)-2-(4-fluorophenyl)-6-methyl-3-(3-methyl-1H-pyrrolo[2,3-b]pyridin-4-yl)-6,7-dihydropyrazolo[1,5-a]pyrazin-5(4H)-yl]prop-2-en-1-one] the same measures were 112 nM, 24.6 nM and 81 nM.
As to `CN(C)C/C=C/C(=O)N1Cc2c(-c3ccncc3)c(-c3ccc(F)cc3)nn2C(CC(N)=O)C1` (racemic) [Example 220, 2-[(7RS)-5-[(2E)-4-(dimethylamino)but-2-enoyl]-2-(4-fluorophenyl)-3-(pyridin-4-yl)-4,5,6,7-tetrahydropyrazolo[1,5-a]pyrazin-7-yl]acetamide], the IC50 worked out at 4.15 nM in test [1] (setting [3]); 9.66 nM in test [2] (Table 2a, D770_N771insNPG); 5880 nM in the test on BA/F3 (insSVD) cells (setting [4]).
On to `C=CC(=O)N1CCn2nc(-c3ccc(C)cc3F)c(-c3ccnc4[nH]ccc34)c2C1` [Example 102, 1-[2-(2-fluoro-4-methylphenyl)-3-(1H-pyrrolo[2,3-b]pyridin-4-yl)-6,7-dihydropyrazolo[1,5-a]pyrazin-5(4H)-yl]prop-2-en-1-one], for which the IC50 amounted to 4.77 nM in test [1] (setting [3]); 22.8 nM in test [2] (Table 2a, D770_N771insNPG); 49.8 nM in the test on BA/F3 (insSVD) cells (setting [4]).
As for `C=CC(=O)N1CCn2nc(-c3ccc(C(F)(F)F)cc3F)c(-c3ccnc4[nH]cc(C)c34)c2C1` [Example 174, 1-(2-(2-fluoro-4-(trifluoromethyl)phenyl)-3-(3-methyl-1H-pyrrolo[2,3-b]pyridin-4-yl)-6,7-dihydropyrazolo[1,5-a]pyrazin-5(4H)-yl) prop-2-en-1-one], the IC50 amounted to 176 nM in test [1] (setting [3]); 2130 nM in test [2] (Table 2a, D770_N771insNPG); 160 nM with BA/F3 (insSVD) cells (setting [4]).
For `C=CC(=O)N1CCn2nc(-c3ccc(C(F)(F)F)nc3)c(-c3ccncc3)c2C1` [Example 188, 1-[3-(pyridin-4-yl)-2-[6-(trifluoromethyl)pyridin-3-yl]-6,7-dihydropyrazolo[1,5-a]pyrazin-5(4H)-yl]prop-2-en-1-one], the IC50 stood at 155 nM in test [1] (setting [3]); 11.2 nM in test [2] (Table 2a, D770_N771insNPG); 149 nM in the test with BA/F3 (insSVD) cells (setting [4]).
`CN(C)C/C=C/C(=O)N1CCn2nc(-c3ccc(Cl)cc3F)c(-c3ccncc3)c2C1` [Example 26, (2E)-1-[2-(4-chloro-2-fluorophenyl)-3-(pyridin-4-yl)-6,7-dihydropyrazolo[1,5-a]pyrazin-5(4H)-yl]-4-(dimethylamino)but-2-en-1-one]: the IC50 in test [1] (setting [3]) was 1.26 nM; in test [2] (Table 2a, D770_N771insNPG), 3.3 nM; in the test on BA/F3 (insSVD) cells (setting [4]), 70.3 nM.
For the molecule `C=CC(=O)N1CCn2nc(-c3ccc(F)cc3)c(-c3ccnc4[nH]cc(C)c34)c2C1C` (single isomer, unassigned; isomer 2) [Example 250, 1-(2-(4-fluorophenyl)-4-methyl-3-(3-methyl-1H-pyrrolo[2,3-b]pyridin-4-yl)-6,7-dihydropyrazolo[1,5-a]pyrazin-5(4H)-yl) prop-2-en-1-one (isomer 2)], the IC50 was 435 nM in test [1] (setting [3]); 216 nM in test [2] (Table 2a, D770_N771insNPG); 75.1 nM in the test with BA/F3 (insSVD) cells (Table 3a, cell survival, Cell Titer-Glo, with 10 ng/ml EGF, without IL-3, 48 h).
As to `CN(C)C/C=C/C(=O)N1Cc2c(-c3ccncc3)c(-c3ccc(F)cc3)nn2CC1(C)C` [Example 216, (2E)-4-(dimethylamino)-1-[2-(4-fluorophenyl)-6,6-dimethyl-3-(pyridin-4-yl)-6,7-dihydropyrazolo[1,5-a]pyrazin-5(4H)-yl]but-2-en-1-one], the IC50 in test [1] (setting [3]) is 25 nM; in test [2] (Table 2a, D770_N771insNPG), 164 nM; in the test on BA/F3 (insSVD) cells (setting [4]), 418 nM.
With `C=CC(=O)N1CCn2nc(-c3ccc(F)cc3)c(-c3ccncc3OC)c2C1` [Example 12, 1-[2-(4-fluorophenyl)-3-(3-methoxypyridin-4-yl)-6,7-dihydropyrazolo[1,5-a]pyrazin-5(4H)-yl]prop-2-en-1-one], the IC50 was found to be 37.1 nM in test [1] (setting [3]); 37.1 nM in test [1] (mutEGFR (D770_N771insSVD) kinase assay IC50, Table 2b (from US Priority Patent Application), mutEGFR D770_N771insSVD); 84.2 nM in test [2] (Table 2a, D770_N771insNPG); 84.2 nM in test [2] (Table 2b (from US Priority Patent Application), mutEGFR D770_N771insNPG); 359 nM in the test with BA/F3 (insSVD) cells (setting [4]); 359 nM with BA/F3 (insSVD) cells (Mus musculus, BaF3, 48 h, Table 3b, Ba/F3 EGFR-insSVD).
Regarding `C=CC(=O)N1CCn2nc(-c3ccc(C(F)(F)F)c(F)c3)c(-c3ccncc3)c2C1` [Example 134, 1-{2-[3-fluoro-4-(trifluoromethyl)phenyl]-3-(pyridin-4-yl)-6,7-dihydropyrazolo[1,5-a]pyrazin-5(4H)-yl}prop-2-en-1-one], the IC50 in test [1] (setting [3]) was found to be 2.1 nM; in test [2] (Table 2a, D770_N771insNPG), 9.18 nM; with BA/F3 (insSVD) cells (setting [4]) it was 65.1 nM.
For `C[C@@H]1Cn2nc(-c3cccc(C#N)c3)c(-c3ccncc3)c2CN1C(=O)/C=C/CN(C)C` [Example 100, 3-[(6R)-5-[(2E)-4-(dimethylamino)but-2-enoyl]-6-methyl-3-(pyridin-4-yl)-4,5,6,7-tetrahydropyrazolo[1,5-a]pyrazin-2-yl]benzonitrile] the same measures were 19.6 nM, 3.57 nM and 420 nM.
